Results taken from patent publication US10995186B2, “Light-activated preparation of hydrogels” (Otago Innovation Limited, priority 2015, dated 2021).
Like-named read-outs stand apart in the source and are kept apart here. Values belong to the compound of their own block, whether it stands above or below them.

Key:
[1] = system: co-culture (75% SKOV3 and 25% HFF) cells; experiment: cells; conditions: Homo sapiens, 96 h
[2] = system: normal human foreskin fibroblasts (HFF); conditions: Fibroblast
[3] = system: normal human foreskin fibroblasts (HFF); experiment: cells; conditions: Fibroblast, 96 h
[4] = system: assembled cancer construct; experiment: Darkfield images of doxorubicin-treated cancer construct; format: cell-based, human
Source text: To print the assembled construct (n=3) a layer-by-layer approach was opted so as to not limit the height of the scaffold that can be constructed using the system. In this scheme the first layer of the scaffold (8 layers of fibre strands) was printed (as described earlier) and then 4 (2×2 fashion) live microspheres were inserted into the pores of the 3D plotted scaffold. This process was repeated to generate a second layer of the scaffold (4 layers of fibre strands) and then 4 more microspheres were inserted into the scaffold. But for the manually assembled scaffold, the whole scaffold was printed at once and the micro-tissues were inserted manually into pre-printed scaffolds in a similar format to the ones assembled with the automated system.
The cytotoxicity test was used to evaluate in vitro antitumor activity of Doxorubicin on cells in 2D, microspheres and assembled cancer construct. […] On day 1 of forming the microspheres, SKOV3, HFF and co-culture cancer constructs were manually assembled and transferred to a 24-well plate with 1.2 ml of media per well. On day 7, for the cytotoxicity test on 2D model, SKOV3s, HFFs and co-culture (75% SKOV3 and 25% HFF) cells were seeded onto a 48-well plate at 30,000 cells and 200 μl of media per well. […] Media with 5% FBS containing the specific concentration of drug was changed every 2 days. […]

[5] = system: human ovarian adenocarcinoma cell lines (SKOV3); experiment: cells; conditions: SK-OV-3, 96 h
Method: (§1) Experiments were carried out with human ovarian adenocarcinoma cell lines (SKOV3) and normal human foreskin fibroblasts (HFF). […] Cells were expanded at 37° C. in a humidified 5% CO2/95% air incubator and media was changed twice a week.
(§2) Each cell encapsulated microspheres was then transferred to well in a 96-well polystyrene plate (Falcon). 150 μL of cell culture media was then pipetted into the wells and placed in the incubator and the media was changed twice a week.

[6] = system: co-culture (75% SKOV3 and 25% HFF) cells
[7] = system: human ovarian adenocarcinoma cell lines (SKOV3)
Method: as §1, §2

[8] = system: human articular chondrocytes (HAC); experiment: GAG assay of HAC encapsulated in Gel-MA hydrogels; format: cell-based; conditions: at 21 days
Method: Cell-laden Gel-MA samples were digested overnight in 200 μL of 1 mg/ml proteinase-K solution at 56° C. In order to quantify the amount of GAG retained in the gel, the digested samples were reacted with DMMB. The absorbance of the samples was then measured at 492 nm (Fluostar Galaxy BMG Labtechnology). The GAG concentrations were calculated from a standard curve constructed using known concentrations of CS-A. The amount of DNA in the gels was measured using the CyQUANT kit. The cells in the digested samples were firstly lysed and RNA degraded using the provided lysis buffer with RNase A (1.35 KU/ml) added for 1 hour at RT. GR-dye solution was then added to the samples, incubated at RT for 15 minutes then the fluorescence was measured (Fluostar Galaxy BMG Labtechnology). A standard curve was constructed using the DNA provided in the kit.

[9] = system: human articular chondrocytes (HAC)
Method: (§3) Articular cartilage biopsies were harvested with ethics approval from a consenting patient. The cartilage was diced into 1 to 2 mm cubes and digested overnight at 37° C. with 0.15% w/v collagenase type II in basic chondrocyte media (DMEM high glucose media supplemented with 10% FCS, 10 mM HEPES, 0.2 mM L-ascorbic acid-2-phosphate, 0.4 mM L-proline and 1% PS). The resulting suspension was filtered through a 100-μm cell strainer (BD Biosciences) to exclude the undigested tissue and centrifuged at 700-g for 4 min. The isolated chondrocytes (HAC) were cultured in basic chondrocyte media and expanded at 37° C. in a humidified 5% CO2/95% air incubator.
(§4) HAC in culture flasks were trypsinised, suspended in basic chondrocyte media, and seeded in 48 well plates at a concentration of 50 HACs/mm^2. The cells were firstly allowed to attach to the surface for 4 hours, then exposed to either 30 mW/cm^2 of UV or visible light (15 minutes), with or without 0.05 wt % of 12959 or 0.2/2 Ru/SPS (mM) respectively. […] After 1 and 7 days, the cells were visualised and quantified using the live/dead assay. […]
(§5) The cells will stain green if alive and red if dead. After staining, the gels were washed with PBS for three times before imaging them using a fluorescence microscope (Zeiss axioimager Z1). The cells were quantified using the ImageJ software and the cell viability was calculated using the equation below:

[10] = system: Breast adenocarcinoma cells (MCF-7)
Method: A live/dead assay was performed after 1 day to evaluate the viability of encapsulated MCF-7 cells.

[11] = system: human articular chondrocytes (HAC); experiment: Photo-toxicity and radical toxicity evaluation, HAC on 2D surfaces; conditions: 7 days post treatment, light plus initiator
Method: as §3, §4, §5

[12] = Deformation of thickness (oxygen inhibition) of Gel-MA/collagen hydrogel; format: physicochemical; conditions: Gel-MA+Collagen 1 discs
Method: The constructs were then irradiated for 15 minutes in the presences of a photo-initiator and a light source, where the surfaces of the constructs were exposed to oxygen. In a first experiment, the light intensity was kept at 3 mW/cm^2 whereas the photo-initiator concentrations were varied from 0.05 to 0.5 wt % and 0.2/2 mM to 2/20 mM for 12959 and Ru/SPS respectively. In a second experiment the light intensity was varied from 3 to 100 mW/cm^2 while keeping the photo-initiator concentrations constant at 0.05 wt % and 0.2/2 mM for 12959 and Ru/SPS respectively. The level of oxygen inhibition was characterised as the deformation of thickness before (to) and after equilibrium swelling (ts). The deformation of thickness is given by the equation: Deformation of thickness=[(t0−ts)/t0]×100.

[13] = read-out: IC50 Assembled construct

IC50 ([5]; read-out: IC50 2D): 50 nM
IC50 [5, 13]: 2410 nM
IC50 ([5]; read-out: IC50 Microspheres): 150 nM
Fold change in IC50 Assembled construct/microspheres [7]: 16.33
Fold change in IC50 Assembled construct/monolayer [7]: 48.32
Fold change in IC50 Microspheres/monolayer [7]: 2.96
Compound: COc1cccc2c1C(=O)c1c(O)c3c(c(O)c1C2=O)C[C@@](O)(C(=O)CO)C[C@@H]3O[C@H]1C[C@H](N)[C@H](O)[C@H](C)O1 [doxorubicin, Doxorubicin]
IC50 ([1]; read-out: IC50 2D): 80 nM
IC50 [1, 13]: 5560 nM
IC50 ([1]; read-out: IC50 Microspheres): 290 nM
Fold change in IC50 Assembled construct/microspheres [2]: 21.41
Fold change in IC50 Assembled construct/monolayer [2]: 24.32
Fold change in IC50 Microspheres/monolayer [2]: 1.14
IC50 ([3]; read-out: IC50 2D): 160 nM
IC50 [3, 13]: 3810 nM
IC50 ([3]; read-out: IC50 Microspheres): 180 nM
tissue present in cancer construct (darkfield images) ([4]; 1 μM drug): atrophy of the tissue
tissue present in cancer construct (darkfield images) ([4]; 10 μM drug): almost no tissue present
Fold change in IC50 Assembled construct/microspheres [6]: 19.34
Fold change in IC50 Assembled construct/monolayer [6]: 70.14
Fold change in IC50 Microspheres/monolayer [6]: 3.63

Compound: CC(C)(O)C(=O)c1ccc(OCCO)cc1 [UV+I2959, 1-[4-(2-hydroxyethoxy)-phenyl]-2-hydroxy-2-methyl-1-propane-1-one]
GAG/gel [8]: 0.1 µg/mg
number of cells attached [9]: 20 HACs/mm^2
cell viability [10]: 50%
cell morphology (live-dead stain) [11]: the cells became rounded
reduction of thickness (deformation of thickness) ([12]; 3 mW/cm^2, 0.05 wt % I2959 or 0.2/2 Ru/SPS (mM)): ~55%
deformation of thickness ([12]; 3 mW/cm^2, 0.5 wt % I2959 or 2/20 Ru/SPS (mM), controls without oxygen <10%): comparable to the controls
